Results from patent US7524639B2, “Assay for screening antipsychotic drugs” (priority 2003, dated 2009).
Read-outs that look alike come from different tables or passages of the source.

Assays:
[1] = values from Goodman & Gilman's (Baldessarini and Tarazi 2001) or other published medical sources, cited from earlier work
[2] = target: T1, rat 5-HT2A receptor tagged with EGFP (Rattus norvegicus, UniProt P14842); experiment: Internalization of GFP-tagged 5-HT2A receptor in SB1 cells (HEK293 stable line), confocal fluorescence microscopy; format: cell-based; settings: drug applied for 10 mins, cycloheximide present
T1 construct: tagged at the C-terminus of the full-length rat 5-HT2A receptor (SR2-GFP); expressed in transfected cells; transiently transfected, differentiated N1E-115 cells (A2)
Experimental: Generation of SR2-GFP receptor and HEK293 cells stably expressing SR2-GFP receptors: Enhanced green fluorescence protein (EGFP) had been tagged at the C-terminus of the full-length rat 5-HT2A receptor (SR2-GFP) and a stable line, SB-1, expressing fluorescent SR2-GFP receptors was established in the HEK293 cell line.
In order to study internalization of the 5-HT2A receptor in SB1 cells, cells were plated onto poly-DL-ornithine (20 μg/ml)—coated coverslip dishes and grown to 60-70% confluency. After 24 hrs in culture, cells were washed twice with serum free-DMEM to remove endogenous 5-HT present in serum. Protein synthesis was then blocked with cycloheximide at 100 μg/ml for 5 hrs to eliminate fluorescence from receptors being synthesized and present in the Golgi. […] Antipsychotics or an agonist such as serotonin (i.e. positive control) at the desired concentrations in DMEM were then applied for 10 mins. At the end of this period, cells were fixed in 4% paraformaldehyde in phosphate buffered saline (PBS) for 30 min, washed with PBS and imaged using a confocal microscope as described below.

[3] = target: T1, rat 5-HT2A receptor tagged with EGFP; experiment: Internalization of GFP-tagged 5-HT2A receptor in transiently transfected, differentiated N1E-115 neuronal cells, confocal fluorescence microscopy; format: cell-based; settings: drug applied for 10 mins, cycloheximide present
Text: A laser-scanning confocal microscope (Model MRC1024—BioRad) attached to a Nikon inverted microscope (Nikon eclipse TE300) and Lasersharp acquisition software were used in this case. A 60× oil immersion objective (NA=1.4) and 20× objective (NA=0.75) were used with laser power at 30% in all studies. […] Images were processed with Adobe Photoshop software using identical values for contrast and brightness. Typically 100-150 cells were randomly chosen and imaged in any one experiment and all experiments were repeated at least three times. In all experiments, cycloheximide was present until the cells were fixed. The number of cells that show internalized fluorescence and the pattern of fluoresence were estimated.
To study internalization of the 5-HT2A receptor in N1E-115 cells, undifferentiated N1E-115 cells grown on cover slip dishes cells were plated onto poly-DL-ornithine (20 μg/ml)—coated coverslip dishes and grown to 60-70% confluency. These cells were transfected with 2 μg of the SR2-GFP DNA mixed with 10 μg of lipofectamine in 1 ml OptiMEM media. 24 hrs after transfection, differentiation medium (1% DMSO+1% FBS+1% AB-AM mix in DMEM) was added in place of 10% DMEM. After 3 days, differentiated cells formed long neurites.

T1 sequence (P14842 whole entry): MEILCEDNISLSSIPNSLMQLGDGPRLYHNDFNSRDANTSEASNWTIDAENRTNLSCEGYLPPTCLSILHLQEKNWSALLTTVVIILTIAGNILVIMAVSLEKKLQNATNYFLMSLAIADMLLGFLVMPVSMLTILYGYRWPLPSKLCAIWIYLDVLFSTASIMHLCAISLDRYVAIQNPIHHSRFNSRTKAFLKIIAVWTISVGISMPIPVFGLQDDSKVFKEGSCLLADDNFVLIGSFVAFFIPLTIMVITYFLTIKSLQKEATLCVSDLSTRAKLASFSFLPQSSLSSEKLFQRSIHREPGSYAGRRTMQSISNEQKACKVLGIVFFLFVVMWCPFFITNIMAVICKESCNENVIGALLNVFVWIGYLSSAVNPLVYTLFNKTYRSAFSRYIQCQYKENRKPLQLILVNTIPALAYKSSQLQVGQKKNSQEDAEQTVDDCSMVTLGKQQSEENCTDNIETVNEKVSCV

SMILES	Extrapyramidal side effects (EPS) [1]	Receptor internalization SB1 cells (pattern of internalization) [2]	Receptor internalization N1E-115 cells (pattern of internalization) [3]	further results
O=C(CCCN1CCC(O)(c2ccc(Cl)cc2)CC1)c1ccc(F)cc1 [Haloperidol]	Very high			Extrapyramidal side effects (EPS) ([1]; listed as haloperidol): severe
Cc1cc2c(s1)Nc1ccccc1N=C2N1CCN(C)CC1 [Olanzapine]	Very low			Extrapyramidal side effects (EPS) ([1]; listed as olanzapine): negligible
OCCN1CCN(CCCN2c3ccccc3Sc3ccc(C(F)(F)F)cc32)CC1 [Fluphenazine]	Very high			Extrapyramidal side effects (EPS) ([1]; listed as fluphenazine): severe
CN1CCN(C2=Nc3cc(Cl)ccc3Nc3ccccc32)CC1 [Clozapine]	Very low			Extrapyramidal side effects (EPS) ([1]; listed as clozapine): negligible
Cc1nc2n(c(=O)c1CCN1CCC(c3noc4cc(F)ccc34)CC1)CCCC2 [Risperidone]	Moderate			
O=C1Cc2cc(CCN3CCN(c4nsc5ccccc45)CC3)c(Cl)cc2N1 [Ziprasidone]	Moderate	Type B	Type B	
OCCOCCN1CCN(C2=Nc3ccccc3Sc3ccccc32)CC1 [Quitapine]	Very low			
OCCN1CCN(CC/C=C2/c3ccccc3Sc3ccc(Cl)cc32)CC1 [Zuclopenthixol]	Moderate	Type C	Type B	
O=C1CCc2ccc(OCCCCN3CCN(c4cccc(Cl)c4Cl)CC3)cc2N1 [Aripiprazole]	Very low	Type A	Type A	
CN1CCN(C2=Nc3ccccc3Oc3ccc(Cl)cc32)CC1 [Loxapine]	Moderate			
